From patent US20240270748A1 (Merck Patent GmbH, priority 2021, published 2024) come the findings set out here.

One data set has as its system YAP-TEAD interaction. Kind of data set: SK-HEP-1 reporter assay (8xTEAD responsive elements driving NanoLuc luciferase). Type of data set: cell-based. In a few lines:
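Reporter read-out: NanoLuc luminescence from 8×TEAD elements stably integrated in SK-HEP-1 cells, after 24 h compound exposure at 37° C. Ten concentrations tested in duplicate, top 30 μM final, 0.3% DMSO; IC50 from curve.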
For orientation: Reporter assays use an easily measured gene product as a stand-in for the process of interest.

The test system of another data set is NCI-H226 cells. Nature of the data set: Viability assay in NCI-H226 (Yap-dependent) cells, CyQuant. Format: cell-based, human. In a few lines:
(§1)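 Seeded cells were dosed 24 h later in duplicate (10-point, 1:3 dilutions, top 30 μM final, 0.3% DMSO) and incubated 96 h at 37 °C. Viability was read with CyQUANT DNA dye after 1 h, fluorescence bottom read. NCI-H226 in RPMI 1640 medium; SW620 YAP/TAZ CRISPR knockout in DMEM/F-12 medium.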

In the next data set the test system is SW620 Yap KO cells. Nature of the data set: Viability assay in SW620 Yap KO (Yap independent) cells, CyQuant. Format: cell-based. In a few lines:
as §1

Where [1] appears, read: Homo sapiens, SK-HEP1, SK-HEP-1 reporter assay, class symbols.
Setting [2] is: Homo sapiens, NCI-H226, 96 h, class symbols.
[3] abbreviates: Homo sapiens, SW-620, 96 h, n.d. = value not detectable below threshold given in parentheses, ND = not determinable within the entire range.
The mark [4] stands for this setting: Homo sapiens, SK-HEP1, SK-HEP-1 reporter assay, n.d. = value not detectable below threshold given in parentheses.
[5] abbreviates: Homo sapiens, SW-620, 96 h, n.d. = value not detectable below threshold given in parentheses.
Setting [6] is: Homo sapiens, SW-620, 96 h, class symbols.
The mark [7] stands for this setting: SK-HEP-1 reporter assay, class symbols.

Molecules are shown by their SMILES.

Molecule `C=CC(=O)Nc1ccc2c(c1)c1cn(C)nc1n2-c1ccc(C(F)(F)F)cc1` [Example 20, N-[2-methyl-8-[4-(trifluoromethyl)phenyl]pyrazolo[3,4-b]indol-5-yl]prop-2-enamide] gave a melting point of 223 to 224 °C.

Turning to `Cn1cc2c3cc(C(=O)NCc4ccncc4)ccc3n(-c3ccc(C(F)(F)F)cc3)c2n1` [Example 28, 2-methyl-N-[(pyridin-4-yl)methyl]-8-[4-(trifluoromethyl)phenyl]-2H, 8H-pyrazolo[3,4-b]indole-5-carboxamide], the melting point lay within 181 to 185 °C.

For the molecule `Cn1cc2c3cc(C(=O)O[C@@H]4O[C@H](C(=O)O)[C@@H](O)[C@H](O)[C@H]4O)ccc3n(-c3ccc(C(F)(F)F)cc3)c2n1` [Example 30, (2S,3S,4S,5R,6S)-3,4,5-trihydroxy-6-{2-methyl-8-[4-(trifluoromethyl)phenyl]-2H,8H-pyrazolo[3,4-b]indole-5-carbonyloxy}oxane-2-carboxylic acid], the melting point lay within 110 to 111 °C.

Regarding `Cc1nc2c(s1)c1cc(C(=O)O)ccc1n2-c1ccc(C(F)(F)F)cc1` [Example 25, 2-methyl-4-[4-(trifluoromethyl)phenyl]-[1,3]thiazolo[4,5-b]indole-7-carboxylic acid], the melting point fell in the range of 169 to 171 °C.

In the case of `C[C@H](NC(=O)c1ccc2c(c1)c1cn(C)nc1n2-c1ccc(C(F)(F)F)cc1)c1ccccn1` [Example C105, 2-methyl-N-[(1S)-1-(pyridin-2-yl)ethyl]-8-[4-(trifluoromethyl)phenyl]-2H,8H-pyrazolo[3,4-b]indole-5-carboxamide], the IC50 in the data set on YAP-TEAD interaction (setting [1]) was 10 to 100 nM; in the data set with NCI-H226 cells (setting [2]) it was 1 to 100 nM; in the data set on SW620 Yap KO cells (setting [3]), above 30000 nM.

In the case of `Cn1cc2c3cc(C(=O)N=[S@@](=O)(CCCO)Cc4ccncc4)ccc3n(-c3ccc(C(F)(F)F)cc3)c2n1` (single isomer, unassigned) [Example C231], the values for the IC50 in the data set on YAP-TEAD interaction (setting [4]), with NCI-H226 cells (setting [2]) and with SW620 Yap KO cells (setting [5]) were above 300 nM, 100 to 1000 nM and above 3000 nM, respectively.

`Cn1nc2c3cc(C(=O)N=[S@@](C)(=O)CCO)ccc3n(-c3ccc(C(F)(F)F)cc3)c2n1` (single isomer, unassigned) [Example C191]: the figures for the IC50 in the data set with YAP-TEAD interaction (setting [1]), in the data set on NCI-H226 cells (setting [2]) and with SW620 Yap KO cells (setting [5]) were 10 to 100 nM, 1 to 100 nM and above 30000 nM, respectively.

Turning to `CC[C@H](CO)NC(=O)c1ccc2c(c1)c1c(C)snc1n2-c1ccc(C(F)(F)F)cc1` [Example C77, N-[(2R)-1-hydroxybutan-2-yl]-3-methyl-8-[4-(trifluoromethyl)phenyl]-8H-[1,2]thiazolo[3,4-b]indole-5-carboxamide], the IC50 is 10 to 100 nM with YAP-TEAD interaction (setting [1]), 1 to 100 nM in the data set on NCI-H226 cells (setting [2]) and above 3200 nM in the data set on SW620 Yap KO cells (setting [3]).

Take `CN(c1ccc2c(c1)c1cn(C)nc1n2-c1ccc(C(F)(F)F)cc1)S(C)(=O)=O` [Example C20, N-methyl-N-{2-methyl-8-[4-(trifluoromethyl)phenyl]-2H,8H-pyrazolo[3,4-b]indol-5-yl}methanesulfonamide]: the IC50 is 10 to 100 nM in the data set with YAP-TEAD interaction (setting [1]), 1 to 100 nM in the data set with NCI-H226 cells (setting [2]) and above 30000 nM in the data set with SW620 Yap KO cells (setting [3]).

Turning to `Cn1cc2c3cc(S(=O)(=O)NCCO)ccc3n(-c3ccc(C(F)(F)F)cc3)c2n1` [Example C57, N-(2-hydroxyethyl)-2-methyl-8-[4-(trifluoromethyl)phenyl]-2H,8H-pyrazolo[3,4-b]indole-5-sulfonamide], the IC50 in the data set with YAP-TEAD interaction (setting [1]) is 10 to 100 nM; in the data set with NCI-H226 cells (setting [2]), 1000 to 10000 nM; in the data set on SW620 Yap KO cells (setting [3]), above 30000 nM.

As for `Cn1nc2c3cc(C(=O)N=[S@@](=O)(CCO)Cc4ccccn4)ccc3n(-c3ccc(C(F)(F)F)cc3)c2n1` (single isomer, unassigned) [Example C157], the IC50 in the data set on YAP-TEAD interaction (setting [1]) is 10 to 100 nM; in the data set with NCI-H226 cells (setting [2]), 100 to 1000 nM; in the data set on SW620 Yap KO cells (setting [6]) it was 1000 to 10000 nM.

Turning to `Cn1cc2c3cc(C(=O)N=[S@@](=O)(CCCO)Cc4cccnc4)ccc3n(-c3ccc(C(F)(F)F)cc3)c2n1` (single isomer, unassigned) [Example C199], the IC50 with YAP-TEAD interaction (setting [4]) is above 95 nM; in the data set with NCI-H226 cells (setting [2]), 100 to 1000 nM; in the data set on SW620 Yap KO cells (setting [5]) it was above 3000 nM.

On to `Cn1cc2c3cc(C(=O)N=S(C)(C)=O)ccc3n(-c3ccc(C(F)(F)F)c(F)c3)c2n1` [Example C168, N-[dimethyl(oxo)-lambda6-sulfanylidene]-8-[3-fluoro-4-(trifluoromethyl)phenyl]-2-methyl-2H,8H-pyrazolo[3,4-b]indole-5-carboxamide], for which the IC50 with YAP-TEAD interaction (setting [1]) is 10 to 100 nM; in the data set with NCI-H226 cells (setting [2]), 1 to 100 nM; in the data set on SW620 Yap KO cells (setting [5]), above 3200 nM.

Consider `CC(NC(=O)c1ccc2c(c1)c1cn(C)nc1n2-c1ccc(C(F)(F)F)cc1)c1ccn[nH]1` (single isomer, unassigned) [Example C76], for which the IC50 in the data set on YAP-TEAD interaction (setting [7]) was 100 to 10000 nM; in the data set on NCI-H226 cells (96 h, class symbols), 1 to 100 nM; in the data set with SW620 Yap KO cells (96 h, n.d. = value not detectable below threshold given in parentheses, ND = not determinable within the entire range), above 3200 nM.

As to `CNC(=O)c1cnc2c(c1)c1cn(C)nc1n2-c1ccc(C(F)(F)F)cc1` [Example C227, N,4-dimethyl-7-[4-(trifluoromethyl)-phenyl]-4,5,7,9-tetraazatricyclo [6.4.0.0^2,6]dodeca-1(8),2,5,9,11-pentaene-11-carboxamide], the concentration for half-maximal inhibition (IC50) in the data set on YAP-TEAD interaction (setting [1]) was 10 to 100 nM; with NCI-H226 cells (setting [2]) it was 1 to 100 nM; in the data set on SW620 Yap KO cells (setting [5]), above 30000 nM.

In the case of `Cc1snc2c1c1cc(C(=O)N[C@H](c3ccccc3)[C@H](C)O)ccc1n2-c1ccc(C(F)(F)F)cc1` [Example C81, N-[(1R,2S)-2-hydroxy-1-phenylpropyl]-3-methyl-8-[4-(trifluoromethyl)phenyl]-8H-[1,2]thiazolo[3,4-b]indole-5-carboxamide], the values for the IC50 in the data set on YAP-TEAD interaction (setting [1]), in the data set on NCI-H226 cells (setting [2]) and with SW620 Yap KO cells (setting [3]) were 10 to 100 nM, 1 to 100 nM and above 3200 nM, respectively.

For the molecule `Cn1cc2c3cc(S(=O)(=O)NC4CC4)ccc3n(-c3ccc(C(F)(F)F)cc3)c2n1` [Example C72, N-cyclopropyl-2-methyl-8-[4-(trifluoromethyl)phenyl]-2H,8H-pyrazolo[3,4-b]indole-5-sulfonamide], the IC50 in the data set with YAP-TEAD interaction (setting [1]) is 1 to 10 nM; in the data set on NCI-H226 cells (Homo sapiens, NCI-H226, 96 h, n.d. = value not detectable below threshold given in parentheses) it was above 3200 nM; with SW620 Yap KO cells (setting [3]) it was above 3200 nM.

Regarding `Cc1c2c3cc(C(=O)N[C@H](C)CO)ccc3n(-c3ccc(C(F)(F)F)cc3)c2nn1C` [Example C97, N-[(2R)-1-hydroxypropan-2-yl]-2,3-dimethyl-8-[4-(trifluoromethyl)phenyl]-2H,8H-pyrazolo[3,4-b]indole-5-carboxamide], the IC50 in the data set on YAP-TEAD interaction (setting [1]) is 10 to 100 nM; with NCI-H226 cells (setting [2]) it was 1 to 100 nM; with SW620 Yap KO cells (setting [3]), above 30000 nM.

Consider `Cn1nc2c3cc(C(=O)N=[S@@](=O)(CCCO)Cc4cccnc4)ccc3n(-c3ccc(C(F)(F)F)cc3)c2n1` (single isomer, unassigned) [Example C200], for which the IC50 in the data set with YAP-TEAD interaction (setting [4]) is above 9500 nM; in the data set with NCI-H226 cells (setting [2]), 100 to 1000 nM; with SW620 Yap KO cells (setting [5]), above 3000 nM.

`Cn1cc2c3cc(N=S(C)(C)=O)ccc3n(-c3ccc(C(F)(F)F)cc3)c2n1` [Example C106, dimethyl({2-methyl-8-[4-(trifluoromethyl)phenyl]-2H,8H-pyrazolo[3,4-b]indol-5-yl}imino)-\6-sulfanone]: the IC50 with YAP-TEAD interaction (setting [1]) was 10 to 100 nM; with NCI-H226 cells (setting [2]) it was 100 to 1000 nM; in the data set on SW620 Yap KO cells (setting [3]), above 30000 nM.

Consider `Cn1nc2c3cc(C(=O)N=S4(=O)CCNCC4)ccc3n(-c3ccc(C(F)(F)F)cc3)c2n1` [Example C261, 2-methyl-N-(1-oxo-1lambda6-thiomorpholin-1-ylidene)-4-[4-(trifluoromethyl)phenyl]-2H,4H-[1,2,3]triazolo[4,5-b]indole-7-carboxamide], for which the values for the IC50 in the data set on YAP-TEAD interaction (setting [1]), in the data set with NCI-H226 cells (setting [2]) and in the data set on SW620 Yap KO cells (setting [5]) were 10 to 100 nM, 1 to 100 nM and above 30000 nM, respectively.

Take `Cn1cc2c3cc(C(=O)N=[S@](=O)(CCCO)Cc4ccncc4)ccc3n(-c3ccc(C(F)(F)F)cc3)c2n1` (single isomer, unassigned) [Example C236]: the IC50 in the data set with YAP-TEAD interaction (setting [4]) is above 95 nM; in the data set with NCI-H226 cells (setting [2]) it was 1 to 100 nM; in the data set on SW620 Yap KO cells (setting [5]), above 3000 nM.

On to `C[C@H](NC(=O)c1ccc2c(c1)c1cn(C)nc1n2-c1ccc(C(F)(F)F)cc1)c1cccc(N)n1` (single isomer, unassigned) [Example C214], for which the IC50 in the data set on YAP-TEAD interaction (setting [1]) is 10 to 100 nM; with NCI-H226 cells (setting [2]), 1 to 100 nM; in the data set with SW620 Yap KO cells (setting [5]), above 3000 nM.

Turning to `Cn1cc2c3cc(C(=O)N[C@@H](CO)c4ccccn4)ccc3n(-c3ccc(C(F)(F)F)c(F)c3)c2n1` [Example C169, 8-[3-fluoro-4-(trifluoromethyl)phenyl]-N-[(1R)-2-hydroxy-1-(pyridin-2-yl)ethyl]-2-methyl-2H,8H-pyrazolo[3,4-b]indole-5-carboxamide], the IC50 in the data set on YAP-TEAD interaction (setting [1]) is 10 to 100 nM; in the data set on NCI-H226 cells (setting [2]) it was 1 to 100 nM; with SW620 Yap KO cells (setting [5]) it was above 3200 nM.

For the molecule `C[C@H](NC(=O)c1ccc2c(c1)c1nn(C)nc1n2-c1ccc(C(F)(F)F)cc1)c1ccccn1` [Example C184, 2-methyl-N-[(1S)-1-(pyridin-2-yl)ethyl]-4-[4-(trifluoromethyl)phenyl]-2H,4H-[1,2,3]triazolo[4,5-b]indole-7-carboxamide], the IC50 is 10 to 100 nM in the data set with YAP-TEAD interaction (setting [1]), 1 to 100 nM with NCI-H226 cells (setting [2]) and above 30000 nM in the data set with SW620 Yap KO cells (setting [5]).

Take `Cn1cnc2c1c1cc(C3CC(Oc4cncnc4)=NO3)ccc1n2-c1ccc(C(F)(F)F)cc1` (stereo not shown) [Example 40, 5-[(5-{1-methyl-4-[4-(trifluoromethyl)phenyl]-1H,4H-imidazo[4,5-b]indol-7-yl}-4,5-dihydro-1,2-oxazol-3-yl)oxy]pyrimidine]: the 50% inhibitory concentration (IC50) with YAP-TEAD interaction (setting [7]) was 10 to 100 nM; with NCI-H226 cells (setting [2]), above 10000 nM; with SW620 Yap KO cells (setting [6]), above 30000 nM.

The term melting point denotes the temperature, or range, at which the solid turns liquid. As a reminder, the IC50 is the midpoint of a concentration-inhibition curve.
